Measurements: US6858638B2, “Substituted indazoles, compositions containing them, method of production and use” (Aventis Pharma S.A., priority 2002, dated 2005)

How the values were obtained:
Type in all cases: biochemical
human FAK = biological target: T1, human FAK (Homo sapiens, UniProt Q05397); assay: FAK autophosphorylation inhibition, time resolved fluorescence (HTRF) assay; settings: 10 μM (values without asterisk); read-out: FAK % inhib at 10 μM
T1 construct: The complete cDNA of human FAK; made in house; host or cells: baculovirus expression system (vector pFastBac HTc)
T1 sequence (Q05397 whole entry): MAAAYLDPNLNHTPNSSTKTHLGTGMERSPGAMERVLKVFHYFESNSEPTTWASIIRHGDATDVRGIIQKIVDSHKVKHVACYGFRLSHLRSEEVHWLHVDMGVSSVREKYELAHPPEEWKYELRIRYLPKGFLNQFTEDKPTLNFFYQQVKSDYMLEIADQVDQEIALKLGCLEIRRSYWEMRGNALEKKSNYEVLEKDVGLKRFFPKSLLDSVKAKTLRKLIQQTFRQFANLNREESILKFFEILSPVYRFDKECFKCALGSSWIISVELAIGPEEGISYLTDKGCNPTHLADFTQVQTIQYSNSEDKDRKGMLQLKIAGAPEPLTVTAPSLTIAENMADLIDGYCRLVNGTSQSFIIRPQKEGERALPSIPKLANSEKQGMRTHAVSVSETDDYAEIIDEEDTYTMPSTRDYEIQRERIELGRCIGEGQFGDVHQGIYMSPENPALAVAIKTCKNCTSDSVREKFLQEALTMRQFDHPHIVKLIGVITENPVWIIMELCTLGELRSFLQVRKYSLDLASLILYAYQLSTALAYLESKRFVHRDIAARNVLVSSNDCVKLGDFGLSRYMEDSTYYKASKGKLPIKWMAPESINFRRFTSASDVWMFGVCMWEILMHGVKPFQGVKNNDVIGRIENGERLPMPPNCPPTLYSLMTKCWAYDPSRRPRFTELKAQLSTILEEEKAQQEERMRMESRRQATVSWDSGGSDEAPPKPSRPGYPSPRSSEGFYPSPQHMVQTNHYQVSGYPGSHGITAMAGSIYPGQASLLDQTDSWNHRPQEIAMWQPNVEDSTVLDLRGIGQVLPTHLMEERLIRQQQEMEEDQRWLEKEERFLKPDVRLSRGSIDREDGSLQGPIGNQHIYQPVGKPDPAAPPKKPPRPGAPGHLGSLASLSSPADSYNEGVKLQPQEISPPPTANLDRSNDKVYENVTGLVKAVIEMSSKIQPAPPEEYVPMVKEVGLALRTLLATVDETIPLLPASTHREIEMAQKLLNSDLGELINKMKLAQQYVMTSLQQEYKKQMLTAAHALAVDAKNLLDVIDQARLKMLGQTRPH
Procedure, shortened: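 His-tagged full-length human FAK from baculovirus (6.6 µg/ml) self-phosphorylates with 15 µM ATP in HEPES pH 7.2, MgCl2, vanadate, 1 h at 37 °C. HTRF detection (Eu-anti-phosphotyrosine / XL665-anti-His), 665/620 nm ratio; % inhibition vs untreated control, duplicate mean.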

human KDR enzyme = biological target: T2, human KDR enzyme (Homo sapiens, UniProt P35968); assay: KDR substrate (PLCγ) phosphorylation, scintillation assay; settings: 10 μM; for inhibition at 10 µM: read-out: KDR % inhib at 10 μM
T2 construct: The cytoplasmic domain of the human KDR enzyme; GST; made in house; host or cells: SF21 insect cells (baculovirus)
T2 sequence (P35968 786-1356 limits assumed): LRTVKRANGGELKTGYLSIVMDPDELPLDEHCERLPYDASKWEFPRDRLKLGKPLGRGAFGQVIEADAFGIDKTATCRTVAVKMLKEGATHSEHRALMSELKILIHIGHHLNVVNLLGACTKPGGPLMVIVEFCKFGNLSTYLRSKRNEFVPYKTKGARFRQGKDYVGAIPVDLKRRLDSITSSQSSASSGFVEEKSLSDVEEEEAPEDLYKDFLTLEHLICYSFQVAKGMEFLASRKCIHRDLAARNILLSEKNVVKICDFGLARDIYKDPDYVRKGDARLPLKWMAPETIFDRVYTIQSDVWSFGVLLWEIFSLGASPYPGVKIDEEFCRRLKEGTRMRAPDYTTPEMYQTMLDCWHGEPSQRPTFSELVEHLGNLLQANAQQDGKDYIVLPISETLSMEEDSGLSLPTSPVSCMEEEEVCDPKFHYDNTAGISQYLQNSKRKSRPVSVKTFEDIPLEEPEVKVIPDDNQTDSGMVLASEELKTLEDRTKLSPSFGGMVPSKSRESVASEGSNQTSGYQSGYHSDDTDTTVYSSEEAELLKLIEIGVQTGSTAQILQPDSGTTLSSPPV
Procedure, shortened: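 GST-fused human KDR cytoplasmic domain from SF21 cells (about 60% pure, 100 ng) phosphorylated 2 μg of GST-PLCγ SH2-SH3 fragment. The trigger solution held γ33P-ATP with 2 μM cold ATP, in MOPS buffer pH 7.2 with Mg2+, Mn2+, vanadate and NaF. Reactions ran 1 h at 37 °C, were stopped with EDTA and counted by scintillation; results are % inhibition versus the no-compound control.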

[1] = biological target: T3, human IGF1R cytoplasmic domain (Homo sapiens, UniProt P08069); assay: IGF1R autophosphorylation inhibition, time resolved fluorescence (HTRF) assay; settings: 10 μM; read-out: IGF1R % inhib at 10 μM
T3 construct: The human IGF1R cytoplasmic domain was cloned; made in house; host or cells: SF21 insect cells (baculovirus)
T3 sequence (P08069 960-1367 limits assumed): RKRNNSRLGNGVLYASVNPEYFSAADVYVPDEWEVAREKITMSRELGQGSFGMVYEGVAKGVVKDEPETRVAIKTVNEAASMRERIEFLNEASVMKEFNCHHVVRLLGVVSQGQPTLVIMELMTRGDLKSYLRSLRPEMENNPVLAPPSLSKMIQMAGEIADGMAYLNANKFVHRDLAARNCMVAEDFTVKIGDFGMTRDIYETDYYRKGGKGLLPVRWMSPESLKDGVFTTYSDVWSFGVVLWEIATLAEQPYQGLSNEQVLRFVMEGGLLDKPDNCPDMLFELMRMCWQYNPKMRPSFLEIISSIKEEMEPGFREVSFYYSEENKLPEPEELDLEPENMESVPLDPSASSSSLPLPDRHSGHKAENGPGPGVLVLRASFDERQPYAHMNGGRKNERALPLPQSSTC
Procedure, shortened: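 GST-tagged human IGF1R cytoplasmic domain from SF21 cells incubated with compound in 50 mM Hepes pH 7.5, 5 mM MnCl2, 50 mM NaCl, […] ATP. Autophosphorylation detected by HTRF (Eu-K anti-phosphotyrosine, XL665 anti-GST) after EDTA/KF stop; percentage inhibition versus no-compound control.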

Aurora2 kinase = biological target: T4, Aurora2 kinase (Homo sapiens, UniProt O14965); assay: Aurora2 kinase radioactivity scintillation assay using nickel chelate (NuMA substrate); settings: 10 μM; read-out: Aurora2 % inhib at 10 μM
T4 construct: A complete recombinant Aurora2 enzyme; His tag (N); made in house; host or cells: E. coli
T4 sequence (O14965 1-403): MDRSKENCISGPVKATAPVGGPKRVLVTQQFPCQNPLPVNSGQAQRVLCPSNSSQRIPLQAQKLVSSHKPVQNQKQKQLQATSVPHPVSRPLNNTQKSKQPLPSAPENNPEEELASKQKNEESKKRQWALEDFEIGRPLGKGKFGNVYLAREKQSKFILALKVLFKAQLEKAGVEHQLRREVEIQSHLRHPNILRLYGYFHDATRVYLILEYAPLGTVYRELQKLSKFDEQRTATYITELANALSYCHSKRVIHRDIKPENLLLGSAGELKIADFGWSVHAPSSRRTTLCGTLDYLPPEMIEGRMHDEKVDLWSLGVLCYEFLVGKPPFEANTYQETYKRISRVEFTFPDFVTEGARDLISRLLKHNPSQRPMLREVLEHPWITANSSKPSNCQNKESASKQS
Procedure, shortened: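 His-tagged full-length Aurora2 (0.02 μM, E. coli) phosphorylating His-tagged NuMA C-terminal fragment (0.5 μM) with 1 μM ATP plus [33P]-ATP, 30 min at 37 °C, pH 7.5 Tris buffer with MgCl2. Nickel-chelate scintillation read; percent inhibition versus no-compound control.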

SMILES | inhibition at 10 µM (human FAK) | inhibition at 10 µM (human KDR enzyme) | inhibition at 10 µM [1] | inhibition at 10 µM (Aurora2 kinase) | KDR % inhib at 10 μM (human KDR enzyme)
CS(=O)(=O)c1ccccc1S(=O)(=O)Nc1ccc2[nH]nc(-c3cc4ccccc4o3)c2c1 [Example 180, N-(3-Benzofuran-2-yl-1H-indazol-5-yl)-2-methanesulfonyl-benzenesulfonamide] | 95% | 29% | 93% | 99% | –
O=S(=O)(Nc1ccc2[nH]nc(-c3ccccc3)c2c1)c1cccc2ccccc12 [Example 106, N-(3-Phenyl-1H-indazol-5-yl)-naphthalene-1-sulfonamide] | 43% | 79% | 90% | 92% | –
N#Cc1ccccc1S(=O)(=O)Nc1ccc2[nH]nc(-c3ccccc3)c2c1 [Example 144, 2-Cyano-N-(3-phenyl-1H-indazol-5-yl)-benzenesulfonamide] | 70% | 72% | 69% | 100% | –
CN(C)c1cccc2c(S(=O)(=O)Nc3ccc4[nH]nc(-c5ccccc5)c4c3)cccc12 [Example 107, 5-Dimethylamino-N-(3-phenyl-1H-indazol-5-yl)naphthalene-1-sulfonamide] | 10% | 51% | 84% | 43% | –
CC(C)c1cc(C(C)C)c(S(=O)(=O)Nc2ccc3[nH]nc(-c4ccccc4)c3c2)c(C(C)C)c1 [Example 114, 2,4,6-Triisopropyl-N-(3-phenyl-1H-indazol-5-yl)-benzenesulfonamide] | 48% | 90% | 50% | 98% | –
CS(=O)(=O)c1ccccc1S(=O)(=O)Nc1ccc2[nH]nc(-c3cc(C(F)(F)F)cc(C(F)(F)F)c3)c2c1 [Example 101, N-[3-(3,5-bistrifluoromethylphenyl)-1H-indazol-5-yl]-2-methylsulfonylbenzenesulfonamide] | 84% | 39% | 28% | 30% | –
CS(=O)(=O)c1ccccc1S(=O)(=O)Nc1ccc2[nH]nc(-c3cccc(OC(F)(F)F)c3)c2c1 [Example 219, N-[3-(3-Trifluoromethoxy-phenyl)-1H-indazol-5-yl]-2-methanesulfonyl-benzenesulfonamide] | 87% | 31% | 60% | 86% | –
CS(=O)(=O)c1ccccc1S(=O)(=O)Nc1ccc2[nH]nc(-c3ccc(-c4ccccc4)c(F)c3)c2c1 [Example 210, N-[3-(2-Fluorobiphenyl-4-yl)-1H-indazol-5-yl]-2-methanesulfonyl-benzenesulfonamide] | 70% | 50% | 0% | 65% | –
COc1ccc(-c2n[nH]c3ccc(NS(=O)(=O)c4ccccc4S(C)(=O)=O)cc23)c(OC)c1 [Example 199, 2-Methanesulfonyl-N-[3-(2,4-dimethoxyphenyl)-1H-indazol-5-yl]benzenesulfonamide] | 87% | 45% | 27% | 87% | –
CS(=O)(=O)c1ccccc1S(=O)(=O)Nc1ccc2[nH]nc(C(=O)NC3CCCCC3)c2c1 [Example 29, N-Cyclohexyl-5-(2-methylsulfonylbenzenesulfonylamino)-1H-indazole-3-carboxamide] | 0% | 8% | 96% | 80% | –
Nc1cc(Cl)cc(Cl)c1S(=O)(=O)Nc1ccc2[nH]nc(-c3ccccc3)c2c1 [Example 159, 2-Amino-4,6-dichloro-N-(3-phenyl-1H-indazol-5-yl)-benzenesulfonamide] | 53% | 86% | 58% | 77% | –

Results, then the compound that gave them:

inhibition at 10 µM (human FAK) | inhibition at 10 µM (human KDR enzyme) | inhibition at 10 µM [1] | inhibition at 10 µM (Aurora2 kinase) | KDR % inhib at 10 μM (human KDR enzyme) | SMILES
71% | 28% | 25% | 49% | – | Cc1ccccc1-c1n[nH]c2ccc(NS(=O)(=O)c3ccccc3S(C)(=O)=O)cc12 [Example 105, 2-Methylsulfonyl-N-(3-o-tolyl-1H-indazol-5-yl)benzenesulfonamide]
95% | 49% | 50% | 87% | – | CS(=O)(=O)c1ccccc1S(=O)(=O)Nc1ccc2[nH]nc(-c3cc(Cl)cc(Cl)c3)c2c1 [Example 168, N-[3-(3,5-Dichlorophenyl)-1H-indazol-5-yl]-2-methanesulfonyl-benzenesulfonamide]
100% | – | 65% | 93% | 53% | CS(=O)(=O)c1ccccc1S(=O)(=O)Nc1ccc2[nH]nc(-c3cccs3)c2c1 [Example 174, 2-Methanesulfonyl-N-(3-thiophen-2-yl-1H-indazol-5-yl)-benzenesulfonamide]
96% | 50% | 74% | 95% | – | CCOc1ccc(-c2n[nH]c3ccc(NS(=O)(=O)c4ccccc4S(C)(=O)=O)cc23)cc1 [Example 190, N-[3-(4-Ethoxyphenyl)-1H-indazol-5-yl]-2-methanesulfonyl-benzenesulfonamide]
96% | 88% | 75% | 95% | – | CS(=O)(=O)c1ccc(-c2n[nH]c3ccc(NS(=O)(=O)c4ccccc4S(C)(=O)=O)cc23)cc1 [Example 220, 2-Methanesulfonyl-N-[3-(4-methanesulfonylphenyl)-1H-indazol-5-yl]-benzenesulfonamide]
72% | 47% | 65% | 86% | – | CS(=O)(=O)c1ccccc1S(=O)(=O)Nc1ccc2[nH]nc(-c3ccc(Br)cc3F)c2c1 [Example 212, N-[3-(4-Bromo-2-fluoro-phenyl)-1H-indazol-5-yl]-2-methanesulfonyl-benzenesulfonamide]
96% | 49% | 72% | 93% | – | Cc1cc(C)cc(-c2n[nH]c3ccc(NS(=O)(=O)c4ccccc4S(C)(=O)=O)cc23)c1 [Example 179, 2-Methanesulfonyl-N-[3-(3,5-dimethylphenyl)-1H-indazol-5-yl]benzenesulfonamide]
55% | 50% | 24% | 82% | – | CC(C)c1ccc(-c2n[nH]c3ccc(NS(=O)(=O)c4ccccc4S(C)(=O)=O)cc23)cc1 [Example 201, N-[3-(4-Isopropylphenyl)-1H-indazol-5-yl]-2-methanesulfonyl-benzenesulfonamide]
94% | 35% | 60% | 90% | – | CCOc1cccc(-c2n[nH]c3ccc(NS(=O)(=O)c4ccccc4S(C)(=O)=O)cc23)c1 [Example 186, N-[3-(3-Ethoxyphenyl)-1H-indazol-5-yl]-2-methanesulfonyl-benzenesulfonamide]
91% | 64% | 61% | 74% | – | CS(=O)(=O)c1ccccc1S(=O)(=O)Nc1ccc2[nH]nc(-c3ccccc3F)c2c1 [Example 188, N-[3-(2-Fluorophenyl)-1H-indazol-5-yl]-2-methanesulfonyl-benzenesulfonamide]
96% | 68% | 69% | 94% | – | CS(=O)(=O)c1ccccc1S(=O)(=O)Nc1ccc2[nH]nc(-c3cccc(F)c3)c2c1 [Example 182, N-[3-(3-Fluorophenyl)-1H-indazol-5-yl]-2-methanesulfonyl-benzenesulfonamide]
